Tests used:
[1] = tested on: A549-ACE2 infected with SARS-CoV-2; assay: cell count relative to DMSO; higher = less toxic; conditions: 24 h
Caco-2 [2] = assay: cell viability relative to DMSO; higher = less toxic; conditions: 72 h
Calu-3 [3] = assay: as above; conditions: 72 h
HepG2 [4] = assay: as above; conditions: 72 h
U2OS [5] = assay: as above; conditions: 72 h
Vero E6 [6] = assay: as above; conditions: 72 h
[7] = tested on: A549-ACE2 infected with SARS-CoV-2; assay: SARS-CoV-2 infection rate relative to DMSO; higher = more infection; conditions: 24 h
A549-ACE2 = assay: drug-induced phospholipidosis relative to tamoxifen; higher = more phospholipidosis
[8] = tested on: A549-ACE2 infected with SARS-CoV-2; assay: morphology score (similarity to uninfected cells); higher = more like uninfected cells; conditions: 24 h
Caco-2 [9] = assay: relative viability EC50 (midpoint between 100% and the lowest measured viability); higher = less toxic; conditions: 72 h
Calu-3 [10] = assay: as above; conditions: 72 h
Caco-2 [11] = assay: drug sensitivity score (DSS) for viability; higher = more toxic; extreme values may be limits of the assay; conditions: 72 h
Calu-3 [12] = assay: as above; conditions: 72 h
HepG2 [13] = assay: as above; conditions: 72 h
U2OS [14] = assay: as above; conditions: 72 h
Vero E6 [15] = assay: as above; conditions: 72 h
HepG2 [16] = assay: relative viability EC50 (midpoint between 100% and the lowest measured viability); higher = less toxic; conditions: 72 h
U2OS [17] = assay: as above; conditions: 72 h
Vero E6 [18] = assay: as above; conditions: 72 h

CCn1c(-c2nonc2N)nc2cncc(C(=O)N3CC[C@H](N)C3)c21
Conditions | SARS-CoV-2 infection rate, [7] [%] | cell count, [1] [%] | cell viability, Caco-2 [2] [%] | cell viability, Calu-3 [3] [%] | cell viability, HepG2 [4] [%] | cell viability, U2OS [5] [%] | cell viability, Vero E6 [6] [%] | morphology score, [8]
1 nM | – | – | 98.7 | 104 | 99.3 | 103 | 107 | –
10 nM | – | – | 99.1 | 94 | 108 | 99.1 | 106 | –
0.1 µM | 103 | 104 | – | – | – | – | – | 0.19
100 nM | – | – | 98.1 | 107 | 95.9 | 101 | 95.3 | –
0.3 µM | 105 | 110 | – | – | – | – | – | 0.18
1 µM | 109 | 91 | – | – | – | – | – | -0.07
1000 nM | – | – | 93.5 | 127 | 88.2 | 88.2 | 84.6 | –
3 µM | 105 | 73 | – | – | – | – | – | -0.12
10000 nM | – | – | 84.2 | 124 | 71.8 | 60.5 | 52.2 | –

drug-induced phospholipidosis [%], A549-ACE2
Conditions | 0.3 µM | 0.833333 µM | 3.33333 µM | 6.66667 µM | 10 µM | 30 µM
24 h | 0.14 | 1.05 | -2.9 | -4.65 | -1.66 | 4.03
48 h | 0.57 | 0.37 | -3.24 | -3.77 | -1.92 | 7.82
72 h | 0.439 | -0.392 | -3.22 | -2.1 | – | –

Conditions | drug sensitivity score | relative viability EC50 [nM]
Caco-2 [9] | – | > 10000
Caco-2 [11] | 0.5 | –
Calu-3 [10] | – | > 10000
Calu-3 [12] | 0 | –
HepG2 [13] | 2.2 | –
U2OS [14] | 3.7 | –
Vero E6 [15] | 4.4 | –

COc1ccc(-c2cc3nccn3c(Nc3ncccc3C(N)=O)n2)cc1OC [BAY-61-3606]
Conditions | SARS-CoV-2 infection rate, [7] [%] | cell count, [1] [%] | cell viability, Caco-2 [2] [%] | cell viability, Calu-3 [3] [%] | cell viability, HepG2 [4] [%] | cell viability, U2OS [5] [%] | cell viability, Vero E6 [6] [%] | morphology score, [8]
1 nM | – | – | 104 | 108 | 96.1 | 103 | 97.4 | –
10 nM | – | – | 89.8 | 99.1 | 99.7 | 97.4 | 99 | –
0.1 µM | 94 | 99 | – | – | – | – | – | 0.21
100 nM | – | – | 95.8 | 96 | 102 | 101 | 93.9 | –
0.3 µM | 101 | 99 | – | – | – | – | – | 0.16
1 µM | 107 | 95 | – | – | – | – | – | 0.02
1000 nM | – | – | 80.8 | 130 | 87.5 | 94.1 | 99.6 | –
3 µM | 82 | 59 | – | – | – | – | – | 0.48
10000 nM | – | – | 46.1 | 109 | 5 | 53.3 | 70.9 | –

drug-induced phospholipidosis [%], A549-ACE2
Conditions | 0.3 µM | 0.833333 µM | 3.33333 µM
24 h | -2.52 | -2.28 | 22.8
48 h | 0.47 | -0.01 | –
72 h | 0.971 | -0.217 | –

Conditions | drug sensitivity score | relative viability EC50 [nM]
Caco-2 [9] | – | 1360
Caco-2 [11] | 5.2 | –
Calu-3 [10] | – | > 10000
Calu-3 [12] | 0 | –
HepG2 [13] | 7.4 | –
HepG2 [16] | – | 2100
U2OS [14] | 3.4 | –
Vero E6 [15] | 1.3 | –

CC(=O)OC[C@H]1O[C@@H]([S-])[C@H](OC(C)=O)[C@@H](OC(C)=O)[C@@H]1OC(C)=O.CCP(CC)CC.[Au+] [auranofin]
Conditions | SARS-CoV-2 infection rate, [7] [%] | cell count, [1] [%] | cell viability, Caco-2 [2] [%] | cell viability, Calu-3 [3] [%] | cell viability, HepG2 [4] [%] | cell viability, U2OS [5] [%] | cell viability, Vero E6 [6] [%] | morphology score, [8]
1 nM | – | – | 99.9 | 100 | 90.6 | 101 | 92.1 | –
10 nM | – | – | 94.2 | 92.8 | 99.4 | 98.2 | 94.2 | –
0.1 µM | 96 | 98 | – | – | – | – | – | 0.03
100 nM | – | – | 101 | 106 | 102 | 98.5 | 93.6 | –
0.3 µM | 91 | 103 | – | – | – | – | – | 0.11
1 µM | 86 | 98 | – | – | – | – | – | 0.34
1000 nM | – | – | 58.6 | 117 | 72.1 | 7.5 | 88.1 | –
3 µM | 64 | 90 | – | – | – | – | – | 0.39
10000 nM | – | – | 0 | 1.2 | -0.1 | 0 | 0 | –

drug-induced phospholipidosis [%], A549-ACE2
Conditions | 0.3 µM | 0.833333 µM | 3.33333 µM | 6.66667 µM
24 h | 0.97 | -3.21 | 5.44 | 2.76
48 h | 3.04 | -1.45 | 6.04 | –
72 h | 2.56 | 0.634 | – | –

Conditions | drug sensitivity score | relative viability EC50 [nM]
Caco-2 [9] | – | 1150
Caco-2 [11] | 11 | –
Calu-3 [10] | – | 3860
Calu-3 [12] | 4.5 | –
HepG2 [13] | 9.7 | –
HepG2 [16] | – | 1460
U2OS [14] | 16.9 | –
U2OS [17] | – | 382
Vero E6 [15] | 7.5 | –
Vero E6 [18] | – | 2190

CCN(CC)C(=S)S [ditiocarb-sodium-trihydrate]
Conditions | SARS-CoV-2 infection rate, [7] [%] | cell count, [1] [%] | cell viability, Caco-2 [2] [%] | cell viability, Calu-3 [3] [%] | cell viability, HepG2 [4] [%] | cell viability, U2OS [5] [%] | cell viability, Vero E6 [6] [%] | morphology score, [8]
1 nM | – | – | 94.1 | 105 | 97.5 | 101 | 92.8 | –
10 nM | – | – | 97 | 93.1 | 97.9 | 98.9 | 102 | –
100 nM | – | – | 89.3 | 108 | 100 | 101 | 96.3 | –
0.3 µM | 108 | 97 | – | – | – | – | – | -0.22
1000 nM | – | – | 89.2 | 89 | 108 | 101 | 103 | –
3 µM | 98 | 102 | – | – | – | – | – | 0.08
10 µM | 95 | 107 | – | – | – | – | – | 0.19
10000 nM | – | – | 16.7 | 70.2 | 35.6 | 85.5 | 99 | –
30 µM | 62 | 106 | – | – | – | – | – | 0.61

drug-induced phospholipidosis [%], A549-ACE2
Conditions | 0.3 µM | 0.833333 µM | 3.33333 µM | 6.66667 µM | 10 µM
24 h | 0.51 | 1.07 | -2.14 | -0.7 | -0.24
48 h | 2.4 | 1.02 | 0.85 | 0.97 | 0.53
72 h | 3.87 | -0.805 | 0.971 | 1.39 | 0.827

Conditions | drug sensitivity score | relative viability EC50 [nM]
Caco-2 [9] | – | 2110
Caco-2 [11] | 6.4 | –
Calu-3 [12] | 2.8 | –
HepG2 [13] | 3 | –
HepG2 [16] | – | 3730
U2OS [14] | 0.2 | –
U2OS [17] | – | > 10000
Vero E6 [15] | 0 | –
Vero E6 [18] | – | > 10000
